Results reported in US10123541B2, “Biocidal mixture, use of biocidal mixture and compositions comprising a biocidal mixture” (ISP Investments LLC, priority 2014, dated 2018).

What was measured:
Assay in all cases: Minimum Inhibitory Concentration (MIC) growth test
Assay type in all cases: cell-based
[1] = test system: Burkholderia cepacia, ATCC 25416; set-up: key to growth of organisms: − = no growth; + = low growth; ++ = moderate growth; +++ = high growth
Source text: (§1) This example intends to analyze the microbial activity of the mixture of invention compared to the individual activity of the mixture components using the methodology that determines the minimal concentration of the substance or mixture that inhibits microorganism growth.
(§2) The tested micro-organisms were: • Staphylococcus aureus, ATCC 6538 • Escherichia coli, ATCC 8739 • Pseudomonas aeruginosa, ATCC 9027 • Burkholderia cepacia, ATCC 25416 • Candida albicans, ATCC 10231 • Aspergillus brasiliensis, ATCC 16404
(§3) The samples of the table above were initially prepared with an initial concentration of 3% based on their solubility in water, and then diluted to achieve the following concentrations: 1.5%; 0.75%; 0.375%; 0.1875%; 0.09375%.
(§4) The dilutions were obtained as follows: (a) to a first test tube containing 5 mL of tripticase soy broth (TSB), 5 mL of 3% concentration solution were added and the mixture was vortexed. 5 mL of the contents of this tube were removed and added to a second tube containing 5 mL of TSB and the mixture was vortexed. This procedure was repeated until obtaining the various concentrations.
(§5) The tested organisms were prepared as typical organism inoculants, under the form of a saline suspension. The concentration of bacterial inoculants was approximately 1×10^6 cfu/mL (“colony-forming unit per milliliter”). The concentration of fungal inoculants was approximately 1×10^5 spores/mL. In the sequence, each sample solution was inoculated with 0.1 mL of organism inoculum and vortexed. The tubes containing bacteria were incubated for 24 hours at 35° C. and the tubes containing fungi were incubated for 48 hours at 25° C.
(§6) An aliquot of 0.1 mL from these tubes was transferred to a tube having 9 mL of Letheen broth containing neutralizing agents. These Letheen tubes were again incubated for 48 hours with Letheen under incubation temperature for bacteria or fungi. Then, a swab previously wet with TSB was put in contact with sample solutions with concentrations 1.5%; 0.75%; 0.375%; 0.1875% and 0.09375%, and then they were swiped over the surface of culture plates (for bacteria: Letheen agar, AOAC—Association of Official Analytical Chemists; for fungi: Mycophil® agar of low pH with Tween® 20 polysorbate surfactant).

[2] = test system: Escherichia coli, ATCC 8739; set-up: key to growth of organisms: − = no growth; + = low growth; ++ = moderate growth; +++ = high growth
Source text: as §1, §2, §3, §4, §5, §6

[3] = test system: Staphylococcus aureus, ATCC 6538; set-up: key to growth of organisms: − = no growth; + = low growth; ++ = moderate growth; +++ = high growth
Source text: as §1, §2, §3, §4, §5, §6

[4] = test system: Aspergillus brasiliensis, ATCC 16404; set-up: key: − = no growth; + = low growth; ++ = moderate growth; +++ = high growth
Source text: as §1, §2, §3, §4, §5, §6

[5] = test system: Candida albicans, ATCC 10231; set-up: key: − = no growth; + = low growth; ++ = moderate growth; +++ = high growth
Source text: as §1, §2, §3, §4, §5, §6

[6] = test system: Pseudomonas aeruginosa, ATCC 9027; set-up: key: − = no growth; + = low growth; ++ = moderate growth; +++ = high growth
Source text: as §1, §2, §3, §4, §5, §6

With `OCCCc1ccccc1` [Sample 1, Phenylpropanol] the “inhibition of growth (in words)” value ([1]; concentration of 1.5%) was “not able to inhibit the growth”, the growth of organisms ([1]; sample concentration 0.09375%) was “+” and the growth of organisms ([1]; sample concentration 0.1875%) was “+”. The growth of organisms ([1]; sample concentration 0.375%) was “+”, the growth of organisms ([1]; sample concentration 0.75%) was “+” and the growth of organisms ([1]; sample concentration 1.5%) was “+”. The “inhibition of growth (in words)” value ([2]; concentration of 1.5%) was “not able to inhibit the growth”, the growth of organisms ([2]; sample concentration 0.09375%) was “+” and the growth of organisms ([2]; sample concentration 0.1875%) was “+”. For the same compound, the growth of organisms ([2]; sample concentration 0.375%) was “+”, the growth of organisms ([2]; sample concentration 0.75%) was “+” and the growth of organisms ([2]; sample concentration 1.5%) was “+”. The “inhibition of growth (in words)” value ([3]; concentration of 1.5%) was “not able to inhibit the growth”, the growth of organisms ([3]; sample concentration 0.09375%) was “+” and the growth of organisms ([3]; sample concentration 0.1875%) was “+”. For the same compound, the growth of organisms ([3]; sample concentration 0.375%) was “+”, the growth of organisms ([3]; sample concentration 0.75%) was “+” and the growth of organisms ([3]; sample concentration 1.5%) was “+”. For the same compound, the growth of organisms ([4]; sample concentration 0.09375%) was “+”, the growth of organisms ([4]; sample concentration 0.1875%) was “+” and the growth of organisms ([4]; sample concentration 0.375%) was “+”. For the same compound, the growth of organisms ([4]; sample concentration 0.75%) was “−”, the growth of organisms ([4]; sample concentration 1.5%) was “−” and the growth of organisms ([5]; sample concentration 0.09375%) was “+”. The growth of organisms ([5]; sample concentration 0.1875%) was “+”, the growth of organisms ([5]; sample concentration 0.375%) was “+” and the growth of organisms ([5]; sample concentration 0.75%) was “−”. For the same compound, the growth of organisms ([5]; sample concentration 1.5%) was “−”, the growth of organisms ([6]; sample concentration 0.09375%) was “+” and the growth of organisms ([6]; sample concentration 0.1875%) was “+”. The growth of organisms ([6]; sample concentration 0.375%) was “+”, the growth of organisms ([6]; sample concentration 0.75%) was “+” and the growth of organisms ([6]; sample concentration 1.5%) was “−”.
